In ChEMBL document CHEMBL1152465, “Comparative evaluation of the inhibitory activities of a series of pyrimidinedione congeners that inhibit human immunodeficiency virus types 1 and 2” (Antimicrob Agents Chemother, 2008):
The source made the active and inactive calls.

Experiments:
[1] = Cytotoxicity against human HeLa cells expressing CD4-LTR by XTT assay; assay type: cell-based; conditions: read-out: TC50 (the source's name)
[2] = tested on: Human immunodeficiency virus 2; assay: Antiviral activity against HIV2 assessed as inhibition of viral single round replication at early time point; assay type: functional, organism-based
[3] = Cytotoxicity against human CEM-SS cells by XTT assay; assay type: cell-based; conditions: read-out: TC50 (the source's name)
[4] = tested on: Human immunodeficiency virus 1; assay: Antiviral activity against HIV1 infected in human CEM-SS cells assessed as inhibition of viral replication and virus-induced cytopathic effect by dose-response curve analysis; assay type: functional; conditions: Human immunodeficiency virus 1, CEM-SS
[5] = Therapeutic index, ratio of TC50 for human CEM-SS cells to EC50 for HIV2 ROD infected in human CEM-SS cells; assay type: cell-based; conditions: for selectivity ratio: CEM-SS cells, read-out: TI; for TI: cem-ss
[6] = tested on: Human immunodeficiency virus 2; assay: Antiviral activity against HIV2 ROD infected in human CEM-SS cells assessed as inhibition of virus-induced cytopathic effect by XTT assay; assay type: functional, organism-based, ISOLATE ROD
[7] = tested on: Human immunodeficiency virus 1; assay: Antiviral activity against HIV1 RF infected in human CEM-SS cells assessed as inhibition of virus-induced cytopathic effect by XTT assay; assay type: functional, organism-based; conditions: Human immunodeficiency virus 1, RF
[8] = tested on: Human immunodeficiency virus 1; assay: Antiviral activity against HIV1 infected in human HeLa cells expressing CD4-LTR assessed as inhibition of viral entry-related beta galactosidase expression treated for 2 hrs followed by drug wash out measured after 48 hrs by MAGI assay; assay type: functional, organism-based; conditions: Human immunodeficiency virus 1, HeLa
[9] = target: Human immunodeficiency virus type 1 reverse transcriptase (Human immunodeficiency virus 1, UniProt Q72547, K103N); assay: Inhibition of HIV1 reverse transcriptase K103N mutant assessed as 32P-labeled GMP incorporation into nascent DNA strand
[10] = tested on: Human immunodeficiency virus 2; assay: Inhibition of HIV2 reverse transcriptase assessed as 32P-labeled GMP incorporation into nascent DNA strand at highest concentration
[11] = tested on: Human immunodeficiency virus 2; assay: Antiviral activity against HIV2 assessed as inhibition of viral replication treated at time points after viral entry into host cells; assay type: functional, organism-based
[12] = target: Human immunodeficiency virus type 1 reverse transcriptase (Human immunodeficiency virus 1, UniProt Q72547); assay: Inhibition of wild type HIV1 reverse transcriptase assessed as 32P-labeled GMP incorporation into nascent DNA strand
[13] = Therapeutic index, ratio of TC50 for human CEM-SS cells to EC50 for HIV1 RF infected in human CEM-SS cells; assay type: cell-based; conditions: read-out: TI
[14] = Therapeutic index, ratio of TC50 human HeLa cells expressing CD4-LTR to EC50 for HIV1 entry inhibition in human HeLa cells expressing CD4-LTR; assay type: cell-based; conditions: read-out: TI
[15] = tested on: Human immunodeficiency virus 2; assay: Inhibition of HIV2 reverse transcriptase
[16] = Human immunodeficiency virus 2, ISOLATE ROD, CEM-SS, read-out: EC50

Compound: Cc1cc(C)cc(C(=O)c2c(C(C)C)c(=O)[nH]c(=O)n2Cc2ccccc2)c1
- CC50 [1]: 20.1 µM
- Activity [2]: Active
- CC50 [3]: 17.8 µM
- EC99 [4]: 1 µM
- selectivity ratio [5]: 223
- EC50 [6, 16]: 0.1 µM
- EC50 [7]: 27 nM
- EC50 [8]: 30 nM
- IC50 [9]: 1.4 µM
- Activity [10]: inactive
- Activity [11]: inactive
- IC50 [12]: 11 nM
- selectivity ratio [13]: 840
- selectivity ratio [14]: 726
- Activity [15]: inactive

Compound: Cc1cc(C)cc(C(=O)c2c(C(C)C)c(=O)[nH]c(=O)n2CCC2=CCCC2)c1
- CC50 [1]: 29.4 µM
- Activity [2]: Active
- CC50 [3]: 19.2 µM
- EC99 [4]: 1 µM
- TI [5]: Not Active
- EC50 ([6]; cem-ss): Not Active
- EC50 [7]: 53 nM
- EC50 [8]: 30 nM
- IC50 [9]: 230 µM
- Activity [10]: inactive
- Activity [11]: inactive
- IC50 [12]: 223 nM
- selectivity ratio [13]: 750
- selectivity ratio [14]: 1040
- Activity [15]: inactive

Compound: CCc1c(Oc2cc(C)cc(C)c2)n(CC2CCCC2)c(=O)[nH]c1=O
- CC50 [1]: 20.9 µM
- Activity [2]: Active
- CC50 [3]: 20.2 µM
- EC99 [4]: 1 µM
- selectivity ratio [5]: 7
- EC50 [6, 16]: 2.9 µM
- EC50 [7]: 15 nM
- EC50 [8]: 230 nM
- IC50 [9]: 0.272 µM
- Activity [10]: inactive
- Activity [11]: inactive
- IC50 [12]: 137 nM
- selectivity ratio [13]: 1450
- selectivity ratio [14]: 89
- Activity [15]: inactive

Compound: Cc1cc(C)cc(C(=O)c2c(C(C)C)c(=O)[nH]c(=O)n2CC2CCC2)c1
- CC50 [1]: 34.2 µM
- Activity [2]: Active
- CC50 [3]: 34.2 µM
- EC99 [4]: 1 µM
- selectivity ratio [5]: 86.4
- EC50 [6, 16]: 0.4 µM
- EC50 [7]: 12 nM
- EC50 [8]: 60 nM
- IC50 [9]: 1.81 µM
- Activity [10]: inactive
- Activity [11]: inactive
- IC50 [12]: 68 nM
- selectivity ratio [13]: 2870
- selectivity ratio [14]: 606
- Activity [15]: inactive

Compound: CCc1c(Oc2cc(C)cc(C)c2)n(CCC2CCCC2)c(=O)[nH]c1=O
- CC50 [1]: 55.9 µM
- Activity [2]: Active
- CC50 [3]: 27 µM
- EC99 [4]: 1 µM
- TI [5]: Not Active
- EC50 ([6]; cem-ss): Not Active
- EC50 [7]: 1490 nM
- EC50 [8]: 2350 nM
- IC50 [9]: 6.4 µM
- Activity [10]: inactive
- Activity [11]: inactive
- IC50 [12]: 549 nM
- selectivity ratio [13]: 57
- selectivity ratio [14]: 24
- Activity [15]: inactive

Compound: Cc1cc(C)cc(Sc2c(C(C)C)c(=O)[nH]c(=O)n2CC2CC=CC2)c1
- CC50 [1]: 23.2 µM
- Activity [2]: Active
- CC50 [3]: 26.5 µM
- EC99 [4]: 1 µM
- selectivity ratio [5]: > 1.3
- EC50 [6, 16]: 15.3 µM
- EC50 [7]: 1220 nM
- EC50 [8]: 80 nM
- IC50 [9]: > 270 µM
- Activity [10]: inactive
- Activity [11]: inactive
- IC50 [12]: 241 nM
- selectivity ratio [13]: 22
- selectivity ratio [14]: 307
- Activity [15]: inactive

Compound: CC(C)c1c(Oc2ccccc2)n(CC2CC=CC2)c(=O)[nH]c1=O
- CC50 [1]: 1120 µM
- Activity [2]: Active
- CC50 [3]: 1100 µM
- EC99 [4]: 1 µM
- selectivity ratio [5]: 37.1
- EC50 [6, 16]: 30.7 µM
- EC50 [7]: 20 nM
- EC50 [8]: 260 nM
- IC50 [9]: > 306 µM
- Activity [10]: inactive
- Activity [11]: inactive
- IC50 [12]: 4910 nM
- selectivity ratio [13]: 55200
- selectivity ratio [14]: 4370
- Activity [15]: inactive

Compound: Cc1cc(C)cc(Sc2c(C(C)C)c(=O)[nH]c(=O)n2CCC2C=CCC2)c1 (stereo not given)
- CC50 [1]: 31.9 µM
- Activity [2]: Active
- CC50 [3]: 25.8 µM
- EC99 [4]: 1 µM
- selectivity ratio [5]: 5.4
- EC50 [6, 16]: 4.8 µM
- EC50 [7]: 21 nM
- EC50 [8]: 9 nM
- IC50 [9]: > 260 µM
- Activity [10]: inactive
- Activity [11]: inactive
- IC50 [12]: 246 nM
- selectivity ratio [13]: 1850
- selectivity ratio [14]: 3650
- Activity [15]: inactive

Compound: Cc1cc(C)cc(Oc2c(C(C)C)c(=O)[nH]c(=O)n2CC2CC=CC2)c1
- CC50 [1]: 200 µM
- Activity [2]: Active
- CC50 [3]: 200 µM
- EC99 [4]: 1 µM
- selectivity ratio [5]: 11
- EC50 [6, 16]: 18.2 µM
- EC50 [7]: 15 nM
- EC50 [8]: 90 nM
- IC50 [9]: 1.9 µM
- Activity [10]: inactive
- Activity [11]: inactive
- IC50 [12]: 256 nM
- selectivity ratio [13]: 12900
- selectivity ratio [14]: 2340
- Activity [15]: inactive

Compound: Cc1cc(C)cc(Sc2c(C(C)C)c(=O)[nH]c(=O)n2CCC2=CCCC2)c1
- CC50 [1]: 21.6 µM
- Activity [2]: Active
- CC50 [3]: 19.3 µM
- EC99 [4]: 1 µM
- TI [5]: Not Active
- EC50 ([6]; cem-ss): Not Active
- EC50 [7]: 940 nM
- EC50 [8]: 11 nM
- IC50 [9]: > 260 µM
- Activity [10]: inactive
- Activity [11]: inactive
- IC50 [12]: 2360 nM
- selectivity ratio [13]: 26
- selectivity ratio [14]: 1990
- Activity [15]: inactive

Compound: Cc1cc(C)cc(Oc2c(C(C)C)c(=O)[nH]c(=O)n2CC2=CCCC2)c1
- CC50 [1]: 20.5 µM
- Activity [2]: Active
- CC50 [3]: 16.4 µM
- EC99 [4]: 1 µM
- selectivity ratio [5]: 32.2
- EC50 [6, 16]: 0.5 µM
- EC50 [7]: 1 nM
- EC50 [8]: 180 nM
- IC50 [9]: 2.2 µM
- Activity [10]: inactive
- Activity [11]: inactive
- IC50 [12]: 32 nM
- selectivity ratio [13]: 23500
- selectivity ratio [14]: 116
- Activity [15]: inactive

Compound: CCc1c(C(=O)c2cc(C)cc(C)c2)n(CC2CCC2)c(=O)[nH]c1=O
- CC50 [1]: 850 µM
- Activity [2]: Active
- CC50 [3]: 850 µM
- EC99 [4]: 1 µM
- selectivity ratio [5]: 190
- EC50 [6, 16]: 4.5 µM
- EC50 [7]: 14 nM
- EC50 [8]: 60 nM
- IC50 [9]: 4.38 µM
- Activity [10]: inactive
- Activity [11]: inactive
- IC50 [12]: 2400 nM
- selectivity ratio [13]: 60700
- selectivity ratio [14]: 14500
- Activity [15]: inactive

Compound: CCc1c(C(=O)c2cc(C)cc(C)c2)n(CCC2CC=CC2)c(=O)[nH]c1=O
- CC50 [1]: 45 µM
- Activity [2]: Active
- CC50 [3]: 13.4 µM
- EC99 [4]: 1 µM
- selectivity ratio [5]: 8.8
- EC50 [6, 16]: 1.5 µM
- EC50 [7]: 13 nM
- EC50 [8]: 1250 nM
- IC50 [9]: 1.9 µM
- Activity [10]: inactive
- Activity [11]: inactive
- IC50 [12]: 18 nM
- selectivity ratio [13]: 5660
- selectivity ratio [14]: 36
- Activity [15]: inactive

Compound: CCc1c(C(=O)c2ccccc2)n(CC2CC=CC2)c(=O)[nH]c1=O
- CC50 [1]: 88.5 µM
- Activity [2]: Active
- CC50 [3]: 88.5 µM
- EC99 [4]: 1 µM
- selectivity ratio [5]: 2.9
- EC50 [6, 16]: 30.9 µM
- EC50 [7]: 61.7 nM
- EC50 [8]: 2930 nM
- IC50 [9]: 134 µM
- Activity [10]: inactive
- Activity [11]: inactive
- IC50 [12]: 256 nM
- selectivity ratio [13]: 1440
- selectivity ratio [14]: 30
- Activity [15]: inactive

Compound: CCc1c(C(=O)c2cc(C)cc(C)c2)n(Cc2ccccc2)c(=O)[nH]c1=O
- CC50 [1]: 562 µM
- Activity [2]: Active
- CC50 [3]: 24.6 µM
- EC99 [4]: 1 µM
- selectivity ratio [5]: 59.3
- EC50 [6, 16]: 0.4 µM
- EC50 [7]: 16 nM
- EC50 [8]: 50 nM
- IC50 [9]: 2.3 µM
- Activity [10]: inactive
- Activity [11]: inactive
- IC50 [12]: 25 nM
- selectivity ratio [13]: 68300
- selectivity ratio [14]: 10200
- Activity [15]: inactive

Compound: CCc1c(Oc2ccccc2)n(CC2CC=CC2)c(=O)[nH]c1=O
- CC50 [1]: 76.9 µM
- Activity [2]: Active
- CC50 [3]: 76.2 µM
- EC99 [4]: 1 µM
- selectivity ratio [5]: 2.4
- EC50 [6, 16]: 32 µM
- EC50 [7]: 610 nM
- EC50 [8]: 150 nM
- IC50 [9]: 48.3 µM
- Activity [10]: inactive
- Activity [11]: inactive
- IC50 [12]: 2620 nM
- selectivity ratio [13]: 127
- selectivity ratio [14]: 527
- Activity [15]: inactive

Compound: CCc1c(C(=O)c2cc(C)cc(C)c2)n(CC2CCCC2)c(=O)[nH]c1=O
- CC50 [1]: 253 µM
- Activity [2]: Active
- CC50 [3]: 253 µM
- EC99 [4]: 1 µM
- selectivity ratio [5]: 299
- EC50 [6, 16]: 0.8 µM
- EC50 [7]: 3.4 nM
- EC50 [8]: 250 nM
- IC50 [9]: 6.9 µM
- Activity [10]: inactive
- Activity [11]: inactive
- IC50 [12]: 169 nM
- selectivity ratio [13]: 74700
- selectivity ratio [14]: 996
- Activity [15]: inactive
